Results as given in patent publication US10023559B2 (Hoffmann-La Roche Inc., priority 2014, dated 2018).

Key:
rat TAAR1 = rat TAAR1 (Rattus norvegicus (Rat), UniProt Q923Y9); test: Radioligand binding assay on rat TAAR1; conditions: for Ki: read-out: Ki(μM) rat, rat TAAR1, HEK-293 membranes, second value of cell pair mouse/rat
Description: (§1) Membrane Preparation and Radioligand Binding.
HEK-293 cells stably expressing rat TAAR1 were maintained at 37° C. and 5% CO2 in DMEM high glucose medium, containing fetal calf serum (10%, heat inactivated for 30 min at 56° C.), penicillin/streptomycin (1%), and 375 μg/ml geneticin (Gibco). Cells were released from culture flasks using trypsin/EDTA, harvested, washed twice with ice-cold PBS (without Ca^2+ and Mg^2+), pelleted at 1,000 rpm for 5 min at 4° C., frozen and stored at −80° C. Frozen pellets were suspended in 20 ml HEPES-NaOH (20 mM, pH 7.4) containing 10 mM EDTA and homogenized with a Polytron (PT 6000, Kinematica) at 14,000 rpm for 20 s. The homogenate was centrifuged at 48,000×g for 30 min at 4° C. Subsequently, the supernatant was removed and discarded, and the pellet resuspended in 20 ml HEPES-NaOH (20 mM, pH 7.4) containing 0.1 mM EDTA using the Polytron (20 s at 14,000 rpm). This procedure was repeated and the final pellet resuspended in HEPES-NaOH containing 0.1 mM EDTA and homogenized using the Polytron. Typically, aliquots of 2 ml membrane portions were stored at −80° C. With each new membrane batch the dissociation constant (Kd) was determined via a saturation curve. […] Nonspecific binding was defined as the amount of [H]—(S)-4-[(ethyl-phenyl-amino)-methyl]-4,5-dihydro-oxazol-2-ylamine bound in the presence of 10 M unlabeled ligand. All compounds were tested at a broad range of concentrations (10 pM to 10 μM) in duplicates. […] The 96 deep well plates were incubated for 1 hr at 4° C. Incubations were terminated by rapid filtration through Unifilter-96 plates (Packard Instrument Company) and glass filters GF/C (Perkin Elmer) presoaked for 1 hr in polyethylenimine (0.3%) and washed 3 times with 1 ml of cold binding buffer. After addition of 45 μl of Microscint 40 (PerkinElmer) the Unifilter-96 plate was sealed and after 1 hr the radioactivity counted using a TopCount Microplate Scintillation Counter (Packard Instrument Company).

mouse TAAR1 = mouse TAAR1 (Mus musculus (Mouse), UniProt Q923Y8); test: Radioligand binding assay on mouse TAAR1
Sequence of mouse TAAR1 (Q923Y8 whole entry): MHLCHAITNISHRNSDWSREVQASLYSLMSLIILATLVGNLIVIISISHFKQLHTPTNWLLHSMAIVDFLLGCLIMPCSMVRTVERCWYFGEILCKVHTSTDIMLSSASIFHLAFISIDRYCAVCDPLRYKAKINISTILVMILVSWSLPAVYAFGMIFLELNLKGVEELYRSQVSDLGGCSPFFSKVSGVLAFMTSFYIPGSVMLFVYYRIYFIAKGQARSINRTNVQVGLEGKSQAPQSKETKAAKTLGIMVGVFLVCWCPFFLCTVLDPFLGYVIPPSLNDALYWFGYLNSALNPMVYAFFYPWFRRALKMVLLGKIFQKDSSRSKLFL
Description: as §1
HEK-293 cells stably expressing mouse TAAR1 were maintained at 37° C. and 5% CO2 in DMEM high glucose medium, containing fetal calf serum (10%, heat inactivated for 30 min at 56° C.), penicillin/streptomycin (1%), and 375 μg/ml geneticin (Gibco). Cells were released from culture flasks using trypsin/EDTA, harvested, washed twice with ice-cold PBS (without Ca^2+ and Mg^2+), pelleted at 1,000 rpm for 5 min at 4° C., frozen and stored at −80° C. Frozen pellets were suspended in 20 ml HEPES-NaOH (20 mM, pH 7.4) containing 10 mM EDTA and homogenized with a Polytron (PT 6000, Kinematica) at 14,000 rpm for 20 s. The homogenate was centrifuged at 48,000×g for 30 min at 4° C. Subsequently, the supernatant was removed and discarded, and the pellet resuspended in 20 ml HEPES-NaOH (20 mM, pH 7.4) containing 0.1 mM EDTA using the Polytron (20 s at 14,000 rpm). This procedure was repeated and the final pellet resuspended in HEPES-NaOH containing 0.1 mM EDTA and homogenized using the Polytron. Typically, aliquots of 2 ml membrane portions were stored at −80° C. With each new membrane batch the dissociation constant (Kd) was determined via a saturation curve. […] Nonspecific binding was defined as the amount of ^3[H]—(S)-4-[(ethyl-phenyl-amino)-methyl]-4,5-dihydro-oxazol-2-ylamine bound in the presence of 10 M unlabeled ligand. All compounds were tested at a broad range of concentrations (10 pM to 10 μM) in duplicates. […] The 96 deep well plates were incubated for 1 hr at 4° C. Incubations were terminated by rapid filtration through Unifilter-96 plates (Packard Instrument Company) and glass filters GF/C (Perkin Elmer) presoaked for 1 hr in polyethylenimine (0.3%) and washed 3 times with 1 ml of cold binding buffer. After addition of 45 μl of Microscint 40 (PerkinElmer) the Unifilter-96 plate was sealed and after 1 hr the radioactivity counted using a TopCount Microplate Scintillation Counter (Packard Instrument Company).

Sequence of rat TAAR1 (Q923Y9 whole entry): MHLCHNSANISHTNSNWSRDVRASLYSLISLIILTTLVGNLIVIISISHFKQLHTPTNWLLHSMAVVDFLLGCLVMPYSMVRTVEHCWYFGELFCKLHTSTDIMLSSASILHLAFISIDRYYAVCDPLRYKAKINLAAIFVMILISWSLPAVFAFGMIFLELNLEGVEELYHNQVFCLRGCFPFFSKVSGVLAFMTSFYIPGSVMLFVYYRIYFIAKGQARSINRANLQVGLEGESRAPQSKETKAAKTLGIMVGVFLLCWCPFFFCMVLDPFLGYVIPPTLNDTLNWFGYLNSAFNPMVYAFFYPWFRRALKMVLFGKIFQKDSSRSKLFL

| SMILES | Ki (rat TAAR1) [µM] | Ki (mouse TAAR1) [nM] | Kd (rat TAAR1; read-out: dissociation constant (Kd) of the radioligand, rat TAAR1 membranes, saturation curve, usual value) [nM] | Kd (mouse TAAR1; read-out: dissociation constant (Kd) of the radioligand, mouse TAAR1 membranes, saturation curve, usual value) [nM] |
| --- | --- | --- | --- | --- |
| O=C(Nc1ccc(C[C@@H]2NC[C@@H]2F)cc1)c1ccnc(C(F)(F)F)c1 [Example 104, N-(4-(((2S,3S)-3-fluoroazetidin-2-yl)methyl)phenyl)-2-(trifluoromethyl)isonicotinamide] | 0.0231 | 10.8 |  |  |
| O=C(Nc1ccc(CC2(F)CNC2)cc1)Nc1ccc(C(F)(F)F)cc1 [Example 105, 1-[4-[(3-fluoroazetidin-3-yl)methyl]phenyl]-3-[4-(trifluoromethyl)phenyl]urea] | 0.0016 | 1.9 |  |  |
| COc1ccc(NC(=O)Nc2ccc(CC3(F)CNC3)cc2)cc1 [Example 106, 1-[4-[(3-fluoroazetidin-3-yl)methyl]phenyl]-3-(4-methoxyphenyl)urea] | 0.0239 | 1.9 |  |  |
| O=C(Nc1ccc(CC2(F)CNC2)cc1)Nc1cccc(Cl)c1 [Example 107, 1-(3-chlorophenyl)-3-[4-[(3-fluoroazetidin-3-yl)methyl]phenyl]urea] | 0.0026 | 2.5 |  |  |
| COc1ccc(NC(=O)Nc2ccc(OC3CNC3)cc2)cc1 [Example 108, 1-[4-(azetidin-3-yloxy)phenyl]-3-(4-methoxyphenyl)urea] | 0.0269 | 108 |  |  |
| O=C(Nc1ccc(OC2CNC2)cc1)Nc1cccc(Cl)c1 [Example 109, 1-[4-(azetidin-3-yloxy)phenyl]-3-(3-chlorophenyl)urea] | 0.003 | 4.6 |  |  |
| O=C(Nc1ccc(SC2CNC2)cc1)Nc1ccc(C(F)(F)F)cc1 [Example 110, 1-[4-(azetidin-3-ylsulfanyl)phenyl]-3-[4-(trifluoromethyl)phenyl]urea] | 0.0081 | 13.1 |  |  |
| COc1ccc(NC(=O)Nc2ccc(SC3CNC3)cc2)cc1 [Example 111, 1-[4-(azetidin-3-ylsulfanyl)phenyl]-3-(4-methoxyphenyl)urea] | 0.139 | 161 |  |  |
| O=C(Nc1ccc(SC2CNC2)cc1)Nc1cccc(Cl)c1 [Example 112, 1-[4-(azetidin-3-ylsulfanyl)phenyl]-3-(3-chlorophenyl)urea] | 0.0111 | 11.1 |  |  |
| O=C(Nc1ccc(CC2CNC2)cc1)Nc1ccc(C(F)(F)F)cc1 [Example 113, 1-[4-(azetidin-3-ylmethyl)phenyl]-3-[4-(trifluoromethyl)phenyl]urea] | 0.0042 | 8.7 |  |  |
| COc1ccc(NC(=O)Nc2ccc(CC3CNC3)cc2)cc1 [Example 114, 1-[4-(azetidin-3-ylmethyl)phenyl]-3-(4-methoxyphenyl)urea] | 0.156 | 160 |  |  |
| O=C(Nc1ccc(CC2CNC2)cc1)Nc1cccc(Cl)c1 [Example 115] | 0.0138 | 27.2 |  |  |
| O=C(Nc1ccc(C=C2CNC2)cc1)Nc1ccc(C(F)(F)F)cc1 [Example 116, 1-[4-(azetidin-3-ylidenemethyl)phenyl]-3-[4-(trifluoromethyl)phenyl]urea] | 0.0016 | 3.7 |  |  |
| COc1ccc(NC(=O)Nc2ccc(C=C3CNC3)cc2)cc1 [Example 117, 1-[4-(azetidin-3-ylidenemethyl)phenyl]-3-(4-methoxyphenyl)urea] | 0.0154 | 27.7 |  |  |
| O=C(Nc1ccc(C=C2CNC2)cc1)Nc1cccc(Cl)c1 [Example 118, 1-[4-(azetidin-3-ylidenemethyl)phenyl]-3-(3-chlorophenyl)urea] | 0.0021 | 3.8 |  |  |
| Cc1cc(C(=O)Nc2ccc(C[C@H]3NC[C@H]3F)cc2)nc(C(F)(F)F)n1 [Example 119, N-(4-(((2R,3R)-3-fluoroazetidin-2-yl)methyl)phenyl)-6-methyl-2-(trifluoromethyl)pyrimidine-4-carboxamide] | 1.18 | 336 |  |  |
| COc1cc(C(=O)Nc2ccc(C[C@H]3NC[C@H]3F)cc2)ccn1 [Example 120, N-(4-(((2R,3R)-3-fluoroazetidin-2-yl)methyl)phenyl)-2-methoxyisonicotinamide] | > 1.5 | 10.3 |  |  |
| O=C(Nc1ccc(C[C@H]2NC[C@H]2F)cc1)c1ccnc(C(F)(F)F)c1 [Example 121, N-(4-(((2R,3R)-3-fluoroazetidin-2-yl)methyl)phenyl)-2-(trifluoromethyl)isonicotinamide] | 0.809 | 7 |  |  |
| CCOc1ccc(C(=O)Nc2ccc(C[C@H]3NC[C@H]3F)cc2)cn1 [Example 122, 6-ethoxy-N-(4-(((2R,3R)-3-fluoroazetidin-2-yl)methyl)phenyl)nicotinamide] | 1.16 | 9.7 |  |  |
| O=C(Nc1ccc(C[C@H]2NC[C@H]2F)cc1)c1cnc(C(F)(F)F)nc1 [Example 123, N-(4-(((2R,3R)-3-fluoroazetidin-2-yl)methyl)phenyl)-2-(trifluoromethyl)pyrimidine-5-carboxamide] | 0.61 | 23.2 |  |  |
| O=C(Nc1ccc(C[C@H]2NC[C@H]2F)cc1)c1cnc(C2CC2)nc1 [Example 124, 2-cyclopropyl-N-(4-(((2R,3R)-3-fluoroazetidin-2-yl)methyl)phenyl)pyrimidine-5-carboxamide] | > 1.5 | 55.4 |  |  |
| CC(C)c1cc(C(=O)Nc2ccc(C[C@H]3NC[C@H]3F)cc2)[nH]n1 [Example 125, N-(4-(((2R,3R)-3-fluoroazetidin-2-yl)methyl)phenyl)-3-isopropyl-1H-pyrazole-5-carboxamide] | 0.466 | 16 |  |  |
| Cc1cc(C(=O)Nc2ccc(C[C@@H]3NC[C@@H]3F)cc2)nc(C(F)(F)F)n1 [Example 126, N-(4-(((2S,3S)-3-fluoroazetidin-2-yl)methyl)phenyl)-6-methyl-2-(trifluoromethyl)pyrimidine-4-carboxamide] | 0.0224 | 22.9 |  |  |
| COc1cc(C(=O)Nc2ccc(C[C@@H]3NC[C@@H]3F)cc2)ccn1 [Example 127, N-(4-(((2S,3S)-3-fluoroazetidin-2-yl)methyl)phenyl)-2-methoxyisonicotinamide] | 0.133 | 3.8 |  |  |
| CCOc1ccc(C(=O)Nc2ccc(C[C@@H]3NC[C@@H]3F)cc2)cn1 [Example 128, 6-ethoxy-N-(4-(((2S,3S)-3-fluoroazetidin-2-yl)methyl)phenyl)nicotinamide] | 0.0204 | 2.3 |  |  |
| O=C(Nc1ccc(C[C@@H]2NC[C@@H]2F)cc1)c1cnc(C2CC2)nc1 [Example 129, 2-cyclopropyl-N-(4-(((2S,3S)-3-fluoroazetidin-2-yl)methyl)phenyl)pyrimidine-5-carboxamide] | 0.055 | 8.9 |  |  |
| O=C(Nc1ccc(C[C@@H]2NC[C@@H]2F)cc1)c1cnc(C(F)(F)F)nc1 [Example 130, N-(4-(((2S,3S)-3-fluoroazetidin-2-yl)methyl)phenyl)-2-(trifluoromethyl)pyrimidine-5-carboxamide] | 0.0156 | 28.2 |  |  |
| CC(C)c1cc(C(=O)Nc2ccc(C[C@@H]3NC[C@@H]3F)cc2)n(C)n1 [Example 131, N-(4-(((2S,3S)-3-fluoroazetidin-2-yl)methyl)phenyl)-3-isopropyl-1-methyl-1H-pyrazole-5-carboxamide] | 0.126 | 119 |  |  |
| CCN(C[C@H]1COC(N)=N1)c1ccccc1 [reference compound] |  |  | ~2.3 | ~0.7 |
